Two compounds from US20070173478A1, “Compositions for the enhanced treatment of depression” (WWK TRUST, priority 2003, published 2007) can be followed below.

The data set has as its system chronic endogenous depression. The data set is described as follows: Case #1: patient with chronic endogenous depression. The data set is classed as in vivo, human. The note with it: person.

Molecules are shown by their SMILES.

As to `CNCCC(Oc1ccc(C(F)(F)F)cc1)c1ccccc1` (stereo not drawn) [fluoxetine], the “antidepressant effect of fluoxetine alone” value (30 mg fluoxetine once daily, before the combination) is on record as “requiring increasing doses to sustain antidepressant effects”.

In the case of `CN(C)CC/C=C1\c2ccccc2CSc2ccccc21` [prothiaden], for the setting “previous treatment”, the “effect of previous treatment” value is “relatively ineffective” and the “side effects of previous treatment” value was “complained of side effects”.
